Measured values from ChEMBL document CHEMBL1201862, “PubChem BioAssay data set” (2004).
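A five-concentration, 48-hour dose response in 96-well plates underlies each endpoint, interpolated linearly between surrounding concentrations. GI50: concentration for 50% inhibition of growth.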 The source made the active and inactive calls. Rule as the data show it: active = GI50 up to about 1.1 µM and inactive = higher.

Key:
Test in all cases: NCI anticancer screen, dose series, 48 h
CAKI-1 = tested on: CAKI-1
A549 = tested on: A549
HOP-62 = tested on: HOP-62
IGROV-1 = tested on: IGROV-1
M19-MEL = tested on: M19-MEL
OVCAR-5 = tested on: OVCAR-5
SN12C = tested on: SN12C
NCI-H226 = tested on: NCI-H226
K562 = tested on: K562
LOX IMVI = tested on: LOX IMVI
Malme-3M = tested on: Malme-3M
EKVX = tested on: EKVX
HCT-15 = tested on: HCT-15
NCI-H522 = tested on: NCI-H522
NCI-H23 = tested on: NCI-H23
HCT-116 = tested on: HCT-116
SNB-19 = tested on: SNB-19

Row | SMILES | GI50 (CAKI-1) | GI50 (A549) | GI50 (HOP-62) | GI50 (IGROV-1) | GI50 (M19-MEL) | GI50 (OVCAR-5) | GI50 (SN12C) | GI50 (NCI-H226) | GI50 (K562) | GI50 (LOX IMVI) | GI50 (Malme-3M) | GI50 (EKVX) | GI50 (HCT-15) [µM] | GI50 (NCI-H522) | GI50 (NCI-H23) | GI50 (HCT-116) | GI50 (SNB-19)
1 | C[N+]1=c2c3cccc4cccc(c(=O)n2CC1)c43 | 23.1 µM (inactive) | 22.4 µM (inactive) | 22 µM (inactive) | 21.9 µM (inactive) | 17.3 µM (inactive) | 15.5 µM (inactive) | 18.1 µM (inactive) | 13.1 µM (inactive) | 19 µM (inactive) | 5.81 µM (inactive) | 10.5 µM (inactive) | 29.4 µM (inactive) | 22 | 11.4 µM (inactive) | 17.6 µM (inactive) | 4.68 µM (inactive) | 
2 | CC1=C[C@H]2C[C@@]3(C)O[C@@H]([C@]4(C)CC[C@H]([C@@H](C)C(=O)O)OO4)CC3C(C)(C)[C@H]2CC1 (stereo partly drawn) | 1.49 µM (inactive) | 1.88 µM (inactive) | 2.22 µM (inactive) |  | 1.67 µM (inactive) | 3.16 µM (inactive) | 1.39 µM (inactive) | 2.01 µM (inactive) |  | 0.161 µM (active) | 0.849 µM (active) | 1.87 µM (inactive) |  | 0.331 µM (active) | 1.91 µM (inactive) | 2.16 µM (inactive) | 1.79 µM (inactive)
3 | O=C(COc1ccc(Cl)cc1)N1N=C(c2ccc(Cl)cc2)CC1(O)c1ccccc1 (stereo not drawn) | 20.9 µM (inactive) | 14.3 µM (inactive) | 23.4 µM (inactive) | 18.5 µM (inactive) | 24 µM (inactive) | 21.7 µM (inactive) | 5 µM (inactive) | 22.3 µM (inactive) | 9.73 µM (inactive) | 12.6 µM (inactive) | 20.2 µM (inactive) | 30 µM (inactive) | 13.1 | 14.3 µM (inactive) | 13.1 µM (inactive) | 12.6 µM (inactive) | 20.3 µM (inactive)
4 | COc1ccccc1NC(=O)CC(=O)n1nc(-c2ccccc2)c(/N=N/c2ccccc2[N+](=O)[O-])c1-c1ccccc1 | > 100 µM (inactive) | > 100 µM (inactive) | > 100 µM (inactive) | > 100 µM (inactive) | 51.2 µM (inactive) | 64.1 µM (inactive) | > 100 µM (inactive) | 0.612 µM (active) | 80.7 µM (inactive) | > 100 µM (inactive) | > 100 µM (inactive) | 44.5 µM (inactive) |  | > 100 µM (inactive) | 98.4 µM (inactive) | 71.6 µM (inactive) | > 100 µM (inactive)
5 | CC(C)CN(CC(C)C)C(=O)C1CCCC[C@@H]1C(=O)O (stereo partly drawn) | > 100 µM (inactive) | > 100 µM (inactive) | > 100 µM (inactive) | > 100 µM (inactive) | > 100 µM (inactive) | > 10 µM (inactive) | > 100 µM (inactive) | > 100 µM (inactive) | > 100 µM (inactive) | > 100 µM (inactive) | > 100 µM (inactive) | > 100 µM (inactive) | > 100 | > 100 µM (inactive) | > 100 µM (inactive) | > 100 µM (inactive) | 
6 | NS(=O)(=O)c1ccc(NC(=O)COC(=O)c2cccc3c(=O)c4ccccc4[nH]c23)cc1 | > 52.5 µM (inactive) | 46.9 µM (inactive) | 18.5 µM (inactive) | 21.5 µM (inactive) | 31.3 µM (inactive) | > 56.5 µM (inactive) | 24 µM (inactive) | 19.6 µM (inactive) | > 100 µM (inactive) | 13.6 µM (inactive) | 17.9 µM (inactive) | 38.2 µM (inactive) | 53.5 | 12.3 µM (inactive) | 21.4 µM (inactive) | 17.7 µM (inactive) | 17 µM (inactive)
7 | COc1cc(OC)cc(C(=O)Cc2c(C(=O)c3ccccc3)c3ccccc3n2C(=O)c2ccccc2)c1 | 50.5 µM (inactive) | 25.3 µM (inactive) | 93.5 µM (inactive) | 31.3 µM (inactive) | 32 µM (inactive) | > 100 µM (inactive) | 43.8 µM (inactive) | 31.1 µM (inactive) | 16.7 µM (inactive) | 31.8 µM (inactive) | 38.5 µM (inactive) | 55.2 µM (inactive) | 31.3 | 6 µM (inactive) | 14.4 µM (inactive) | 23.2 µM (inactive) | 11.3 µM (inactive)
8 | COC(=O)CC(=O)NCC1=CCC(=O)CC1 | > 100 µM (inactive) | > 100 µM (inactive) | > 100 µM (inactive) | > 100 µM (inactive) | > 100 µM (inactive) |  | > 100 µM (inactive) |  | > 100 µM (inactive) | > 100 µM (inactive) | > 100 µM (inactive) | > 100 µM (inactive) | > 100 | > 100 µM (inactive) | > 100 µM (inactive) | > 100 µM (inactive) | > 100 µM (inactive)
9 | N#Cc1ccc(C2OCC3CC=CCC3CO2)cc1 (stereo not drawn) | > 100 µM (inactive) | 70 µM (inactive) | > 100 µM (inactive) | > 100 µM (inactive) | 84.7 µM (inactive) | 71.9 µM (inactive) | > 100 µM (inactive) | > 100 µM (inactive) | 30.9 µM (inactive) | 94.6 µM (inactive) | > 100 µM (inactive) | 31.2 µM (inactive) | 61.2 | 18.9 µM (inactive) | 36.3 µM (inactive) | 65.5 µM (inactive) | > 100 µM (inactive)
10 | C1CCN(c2nsc(N3CCCCC3)n2)CC1 | > 100 µM (inactive) | > 100 µM (inactive) | > 100 µM (inactive) | > 100 µM (inactive) | > 100 µM (inactive) | > 100 µM (inactive) | > 100 µM (inactive) | > 100 µM (inactive) | > 100 µM (inactive) | > 100 µM (inactive) | > 100 µM (inactive) | > 100 µM (inactive) | > 100 | > 100 µM (inactive) | > 100 µM (inactive) | > 100 µM (inactive) | > 100 µM (inactive)
11 | CC1=C(C(=O)Nc2ccc([N+](=O)[O-])cc2)C(c2ccco2)C(C(=O)Nc2ccc([N+](=O)[O-])cc2)=C(C)N1 | 20.3 µM (inactive) | 18.1 µM (inactive) | 10 µM (inactive) | 14.9 µM (inactive) | 13.1 µM (inactive) | 30.9 µM (inactive) | 16.3 µM (inactive) | 19.1 µM (inactive) | 6.37 µM (inactive) | 19.6 µM (inactive) | 12.4 µM (inactive) | 3.63 µM (inactive) |  | 12.4 µM (inactive) | 13.4 µM (inactive) |  | 27.1 µM (inactive)
12 | CCCCCCCCCCCCCC(=O)OCC1OC(=O)C(O)C1O (stereo not drawn) | > 100 µM (inactive) | > 100 µM (inactive) | > 100 µM (inactive) | > 100 µM (inactive) | > 100 µM (inactive) | > 100 µM (inactive) | > 100 µM (inactive) | > 100 µM (inactive) | 73.8 µM (inactive) | > 100 µM (inactive) | > 100 µM (inactive) | > 100 µM (inactive) |  | > 100 µM (inactive) | > 100 µM (inactive) | > 100 µM (inactive) | > 100 µM (inactive)
13 | O=C1C=CC(=O)N1Nc1ccc([N+](=O)[O-])cc1[N+](=O)[O-] | > 47.9 µM (inactive) | > 100 µM (inactive) | > 100 µM (inactive) | > 100 µM (inactive) | > 89.7 µM (inactive) | > 100 µM (inactive) | > 100 µM (inactive) | 97.1 µM (inactive) | > 42.4 µM (inactive) | > 100 µM (inactive) | 16.8 µM (inactive) | > 100 µM (inactive) | > 74.1 | > 42.7 µM (inactive) | > 100 µM (inactive) | > 100 µM (inactive) | > 100 µM (inactive)
14 | CC(=O)C1C(=O)NC(=O)C1=O (stereo not drawn) | > 100 µM (inactive) |  | > 100 µM (inactive) | > 100 µM (inactive) | > 100 µM (inactive) | > 100 µM (inactive) | > 100 µM (inactive) | > 100 µM (inactive) | > 100 µM (inactive) | > 100 µM (inactive) | > 100 µM (inactive) | > 100 µM (inactive) | > 100 | > 100 µM (inactive) | > 100 µM (inactive) | > 100 µM (inactive) | > 100 µM (inactive)
15 | Clc1ccc2c(c1)[nH]c1c2nc2sccn21 | > 100 µM (inactive) | > 100 µM (inactive) | > 100 µM (inactive) | > 100 µM (inactive) | > 100 µM (inactive) | > 100 µM (inactive) | > 100 µM (inactive) | > 100 µM (inactive) | > 100 µM (inactive) | > 100 µM (inactive) | > 100 µM (inactive) | > 100 µM (inactive) | > 100 | > 100 µM (inactive) | > 100 µM (inactive) | > 100 µM (inactive) | > 100 µM (inactive)
